According to patent publication US9422267B2, “Fused pyrimidine compounds and use thereof” (Medivation Technologies, Inc., priority 2012, dated 2016):
One block for each compound: values may come before it.

How the values were obtained:
[1] = target: T1, INSR (Homo sapiens, UniProt P06213); experiment: Caliper kinase profiling: INSR; type: biochemical; conditions: for inhibition at 0.01 µM: 10 nM, read-out: Average % Inh @ 10 nM
T1 construct: purchased Caliper LifeSciences (ProfilerPro Kinase Selectivity Assay Kits)
Method: (§2) The compound was tested at concentrations of 1.0×10^−8 and 1.0×10^−9 M in the RapidKinase192™ panel in duplicate. […] The screening was performed using the Caliper EZReader2, a 4-sipper LabChip, and ProfilerPro Kinase Selectivity Assay Kits 1 and 2. The assay measures the conversion of a fluorescent peptide substrate to a phosphorylated product. Briefly, the reaction mixture was introduced through a capillary sipper onto the microfluidic chip, where the substrate and product were electrophoretically separated and detected by laser-induced fluorescence. The time-dependent fluorescence signal indicates the extent of the reaction.

[2] = target: T2, PYK2 (Homo sapiens, UniProt Q14289); experiment: Caliper kinase profiling: PYK2; type: biochemical; conditions: for inhibition at 0.01 µM: PYK2, 10 nM, read-out: Average % Inh @ 10 nM
T2 construct: purchased Caliper LifeSciences (ProfilerPro Kinase Selectivity Assay Kits)

[3] = system: AMPK; experiment: Caliper kinase profiling: AMPK; type: biochemical
Method: as §2

[4] = target: T3, Arg (Homo sapiens, UniProt P42684); experiment: Caliper kinase profiling: Arg; type: biochemical
T3 construct: purchased Caliper LifeSciences (ProfilerPro Kinase Selectivity Assay Kits)

[5] = target: EPHA2 (Homo sapiens, UniProt P29317); experiment: Caliper kinase profiling: EPHA2; type: biochemical; conditions: EPHA2, 1 μM; read-out: Average % Inh @ 1 μM
[6] = target: EPHB2 (Homo sapiens, UniProt P29323); experiment: Caliper kinase profiling: EPHB2; type: biochemical; conditions: EPHB2, 1 μM; read-out: Average % Inh @ 1 μM
[7] = target: EPHB4 (Homo sapiens, UniProt P54760); experiment: Caliper kinase profiling: EPHB4; type: biochemical; conditions: EPHB4, 1 μM; read-out: Average % Inh @ 1 μM
[8] = target: FES (Homo sapiens, UniProt P07332); experiment: Caliper kinase profiling: FES; type: biochemical; conditions: read-out: Average % Inh @ 1 μM
[9] = target: LCK (Homo sapiens, UniProt P06239); experiment: Caliper kinase profiling: LCK; type: biochemical
[10] = target: LTK (Homo sapiens, UniProt P29376); experiment: Caliper kinase profiling: LTK; type: biochemical; conditions: read-out: Average % Inh @ 1 μM
[11] = target: T4, MST1 (Homo sapiens, UniProt Q13043); experiment: Caliper kinase profiling: MST1; type: biochemical
T4 sequence (Q13043 1-487): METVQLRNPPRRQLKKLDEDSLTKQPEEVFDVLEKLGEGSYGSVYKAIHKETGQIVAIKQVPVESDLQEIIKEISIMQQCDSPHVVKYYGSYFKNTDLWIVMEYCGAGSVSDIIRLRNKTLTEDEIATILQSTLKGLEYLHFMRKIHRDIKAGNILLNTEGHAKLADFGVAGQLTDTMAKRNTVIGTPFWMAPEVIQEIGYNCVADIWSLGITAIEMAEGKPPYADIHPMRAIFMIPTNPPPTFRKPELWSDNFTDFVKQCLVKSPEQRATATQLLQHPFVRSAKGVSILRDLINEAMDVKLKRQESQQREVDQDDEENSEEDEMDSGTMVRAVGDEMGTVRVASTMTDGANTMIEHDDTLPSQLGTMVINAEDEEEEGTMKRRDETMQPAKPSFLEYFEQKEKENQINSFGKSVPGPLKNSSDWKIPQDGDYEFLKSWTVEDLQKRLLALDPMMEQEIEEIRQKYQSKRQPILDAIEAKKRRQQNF

[12] = target: SRC (Homo sapiens, UniProt P12931); experiment: Caliper kinase profiling: SRC; type: biochemical
[13] = target: Yes (Homo sapiens, UniProt P07947); experiment: Caliper kinase profiling: Yes; type: biochemical
[14] = target: T5, AurA (Homo sapiens, UniProt O14965); experiment: Caliper kinase profiling: AurA
T5 sequence (O14965 1-403): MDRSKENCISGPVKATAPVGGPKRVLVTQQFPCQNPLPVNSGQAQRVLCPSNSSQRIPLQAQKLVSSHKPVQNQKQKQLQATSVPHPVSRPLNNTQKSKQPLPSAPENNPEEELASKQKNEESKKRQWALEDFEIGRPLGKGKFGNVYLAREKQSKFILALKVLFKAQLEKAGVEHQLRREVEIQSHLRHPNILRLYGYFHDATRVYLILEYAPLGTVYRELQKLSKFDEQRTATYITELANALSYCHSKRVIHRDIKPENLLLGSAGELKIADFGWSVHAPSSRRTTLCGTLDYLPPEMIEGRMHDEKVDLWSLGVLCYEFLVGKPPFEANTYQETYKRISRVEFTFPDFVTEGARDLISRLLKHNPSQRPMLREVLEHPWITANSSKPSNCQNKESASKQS
Method: as §2
(§3) The assays were conducted using the Caliper LabChip 3000 and a 12-sipper LabChip as described above.

[15] = target: AurB (Homo sapiens, UniProt Q96GD4); experiment: Caliper kinase profiling: AurB
Method: as §2, §3

[16] = target: T6, AurC (Homo sapiens, UniProt Q9UQB9); experiment: Caliper kinase profiling: AurC
T6 sequence (Q9UQB9 1-309): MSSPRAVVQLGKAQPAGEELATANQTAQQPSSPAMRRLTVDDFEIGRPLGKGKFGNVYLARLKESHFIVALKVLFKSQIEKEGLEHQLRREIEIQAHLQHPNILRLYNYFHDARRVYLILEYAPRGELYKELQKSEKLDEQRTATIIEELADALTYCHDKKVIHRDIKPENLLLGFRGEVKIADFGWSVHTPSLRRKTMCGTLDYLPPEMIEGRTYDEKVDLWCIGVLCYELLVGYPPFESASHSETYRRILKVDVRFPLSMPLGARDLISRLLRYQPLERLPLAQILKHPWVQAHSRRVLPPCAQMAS
Method: as §2, §3

[17] = system: over 50 of the panel of 72 non-kinase targets (Table B14); experiment: Extended panel screen against non-kinase targets (LeadProfilingScreen and CYP450 assays); type: binding; conditions: read-out: percent inhibition for over 50 of the non-kinase targets tested
Method: (§1) Compound no. The experiments were performed by Ricerca Biosciences (Painesville, Ohio) using the LeadProfilingScreen and CYP450 assays. Compound no. 8b was screened at a concentration of 1 μM. No significant hits were identified.

[18] = system: panel of 72 non-kinase targets (Table B14), incl. CYP450; experiment: as above; type: binding; conditions: 72 non-kinase targets, read-out: percent inhibition of all non-kinase targets
Method: as §1

[19] = 100 nM, read-out: Average % Inh @ 100 nM
[20] = 1 μM, read-out: Average % Inh @ 1 μM
[21] = 10 nM, read-out: Average % Inh @ 10 nM
[22] = read-out: Average % Inh @ 10 nM
[23] = read-out: Average % Inh @ 100 nM

Sequence of SRC (P12931 whole entry): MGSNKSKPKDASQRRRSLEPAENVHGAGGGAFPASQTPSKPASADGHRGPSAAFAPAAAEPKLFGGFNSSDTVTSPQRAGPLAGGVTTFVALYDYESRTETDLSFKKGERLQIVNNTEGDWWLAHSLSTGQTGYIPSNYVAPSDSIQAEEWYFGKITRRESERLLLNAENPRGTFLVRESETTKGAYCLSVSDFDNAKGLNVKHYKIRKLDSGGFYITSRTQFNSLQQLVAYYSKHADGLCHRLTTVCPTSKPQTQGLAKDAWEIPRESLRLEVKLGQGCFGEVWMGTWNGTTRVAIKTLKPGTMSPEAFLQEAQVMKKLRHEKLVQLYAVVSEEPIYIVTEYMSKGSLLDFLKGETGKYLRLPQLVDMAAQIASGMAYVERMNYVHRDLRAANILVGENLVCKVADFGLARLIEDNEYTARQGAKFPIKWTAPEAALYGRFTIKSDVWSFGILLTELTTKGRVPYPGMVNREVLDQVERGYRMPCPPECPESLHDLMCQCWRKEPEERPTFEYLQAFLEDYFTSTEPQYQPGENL
T2 sequence (Q14289 whole entry): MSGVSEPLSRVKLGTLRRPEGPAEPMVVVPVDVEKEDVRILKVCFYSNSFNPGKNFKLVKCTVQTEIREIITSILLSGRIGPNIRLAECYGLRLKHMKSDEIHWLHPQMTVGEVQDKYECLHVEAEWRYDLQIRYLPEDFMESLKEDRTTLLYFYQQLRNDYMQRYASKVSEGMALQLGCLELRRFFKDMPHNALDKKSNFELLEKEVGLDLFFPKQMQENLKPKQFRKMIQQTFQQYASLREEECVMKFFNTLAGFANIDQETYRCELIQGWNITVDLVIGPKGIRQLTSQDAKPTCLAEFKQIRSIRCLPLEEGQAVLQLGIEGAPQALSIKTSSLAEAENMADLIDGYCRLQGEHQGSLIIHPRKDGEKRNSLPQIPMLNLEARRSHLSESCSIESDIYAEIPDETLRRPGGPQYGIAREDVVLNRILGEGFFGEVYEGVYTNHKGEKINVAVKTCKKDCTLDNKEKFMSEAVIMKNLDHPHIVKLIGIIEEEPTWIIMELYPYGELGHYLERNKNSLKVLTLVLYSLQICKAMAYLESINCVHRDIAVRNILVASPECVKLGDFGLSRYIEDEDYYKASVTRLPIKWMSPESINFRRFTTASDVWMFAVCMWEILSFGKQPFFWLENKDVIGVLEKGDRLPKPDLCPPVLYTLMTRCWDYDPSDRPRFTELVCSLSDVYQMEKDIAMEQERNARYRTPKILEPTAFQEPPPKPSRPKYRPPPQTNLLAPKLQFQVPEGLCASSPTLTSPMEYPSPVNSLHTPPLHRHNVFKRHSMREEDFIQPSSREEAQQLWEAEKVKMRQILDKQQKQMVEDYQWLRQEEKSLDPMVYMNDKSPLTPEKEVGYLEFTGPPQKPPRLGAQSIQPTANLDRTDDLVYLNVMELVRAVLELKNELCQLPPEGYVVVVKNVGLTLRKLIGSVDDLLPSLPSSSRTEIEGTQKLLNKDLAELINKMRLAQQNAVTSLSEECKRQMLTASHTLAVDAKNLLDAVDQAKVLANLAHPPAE
Sequence of Yes (P07947 whole entry): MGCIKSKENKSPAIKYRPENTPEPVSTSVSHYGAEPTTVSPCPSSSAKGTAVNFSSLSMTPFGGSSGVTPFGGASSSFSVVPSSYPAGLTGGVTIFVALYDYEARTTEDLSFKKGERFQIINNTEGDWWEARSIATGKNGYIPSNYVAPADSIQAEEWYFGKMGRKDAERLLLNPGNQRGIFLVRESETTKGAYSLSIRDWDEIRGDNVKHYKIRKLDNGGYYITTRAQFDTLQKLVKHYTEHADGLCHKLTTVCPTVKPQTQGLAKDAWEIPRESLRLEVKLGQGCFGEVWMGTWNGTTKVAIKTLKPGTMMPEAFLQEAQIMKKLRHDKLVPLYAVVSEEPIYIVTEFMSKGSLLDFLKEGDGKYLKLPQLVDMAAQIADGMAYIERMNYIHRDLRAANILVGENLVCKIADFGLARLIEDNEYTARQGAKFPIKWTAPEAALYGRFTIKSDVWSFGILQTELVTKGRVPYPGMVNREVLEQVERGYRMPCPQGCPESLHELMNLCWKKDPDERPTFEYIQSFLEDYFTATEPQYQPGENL
T3 sequence (P42684 whole entry): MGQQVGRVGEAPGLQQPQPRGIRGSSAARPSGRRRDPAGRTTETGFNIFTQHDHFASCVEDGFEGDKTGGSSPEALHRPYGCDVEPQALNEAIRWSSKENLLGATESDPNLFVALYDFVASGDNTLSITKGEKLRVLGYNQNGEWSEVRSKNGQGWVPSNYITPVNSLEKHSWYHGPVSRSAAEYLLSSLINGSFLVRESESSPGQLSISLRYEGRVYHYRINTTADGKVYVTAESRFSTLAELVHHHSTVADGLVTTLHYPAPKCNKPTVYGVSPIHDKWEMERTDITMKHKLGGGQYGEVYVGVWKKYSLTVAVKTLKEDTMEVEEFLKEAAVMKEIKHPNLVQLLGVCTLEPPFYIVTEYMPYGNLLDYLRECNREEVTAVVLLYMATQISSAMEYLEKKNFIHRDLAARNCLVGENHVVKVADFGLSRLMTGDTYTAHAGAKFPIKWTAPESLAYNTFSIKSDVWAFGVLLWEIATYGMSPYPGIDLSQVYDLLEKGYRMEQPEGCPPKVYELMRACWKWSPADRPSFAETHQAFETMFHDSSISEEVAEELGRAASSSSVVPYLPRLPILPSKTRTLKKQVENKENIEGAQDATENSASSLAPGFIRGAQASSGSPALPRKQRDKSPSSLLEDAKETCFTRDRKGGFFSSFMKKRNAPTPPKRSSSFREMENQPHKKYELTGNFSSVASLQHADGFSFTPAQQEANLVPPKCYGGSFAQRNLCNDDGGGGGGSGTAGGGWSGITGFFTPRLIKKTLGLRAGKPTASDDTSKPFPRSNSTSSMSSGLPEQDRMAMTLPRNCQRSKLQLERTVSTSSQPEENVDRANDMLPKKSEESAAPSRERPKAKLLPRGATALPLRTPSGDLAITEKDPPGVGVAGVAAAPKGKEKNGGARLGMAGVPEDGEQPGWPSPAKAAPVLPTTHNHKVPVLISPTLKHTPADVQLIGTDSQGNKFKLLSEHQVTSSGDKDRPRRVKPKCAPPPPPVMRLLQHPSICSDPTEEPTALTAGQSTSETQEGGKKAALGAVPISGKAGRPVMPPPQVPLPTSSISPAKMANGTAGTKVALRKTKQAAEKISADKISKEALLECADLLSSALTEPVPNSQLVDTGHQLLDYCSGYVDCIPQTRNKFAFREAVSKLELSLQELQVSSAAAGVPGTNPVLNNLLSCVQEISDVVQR
Sequence of LCK (P06239 whole entry): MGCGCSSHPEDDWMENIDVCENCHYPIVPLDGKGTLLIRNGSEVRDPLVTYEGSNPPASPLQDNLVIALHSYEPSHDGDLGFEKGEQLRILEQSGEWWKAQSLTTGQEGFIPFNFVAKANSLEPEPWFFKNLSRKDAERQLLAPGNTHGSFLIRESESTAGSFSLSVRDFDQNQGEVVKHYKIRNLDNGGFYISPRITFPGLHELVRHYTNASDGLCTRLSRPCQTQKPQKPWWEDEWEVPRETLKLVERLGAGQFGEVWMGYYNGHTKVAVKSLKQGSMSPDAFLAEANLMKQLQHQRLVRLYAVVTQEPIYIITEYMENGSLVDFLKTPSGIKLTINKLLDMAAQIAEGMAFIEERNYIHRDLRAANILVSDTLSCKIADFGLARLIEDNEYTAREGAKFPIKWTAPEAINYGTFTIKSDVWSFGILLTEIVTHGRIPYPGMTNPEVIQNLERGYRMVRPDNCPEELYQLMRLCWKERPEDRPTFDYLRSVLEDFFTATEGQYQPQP
Sequence of AurB (Q96GD4 whole entry): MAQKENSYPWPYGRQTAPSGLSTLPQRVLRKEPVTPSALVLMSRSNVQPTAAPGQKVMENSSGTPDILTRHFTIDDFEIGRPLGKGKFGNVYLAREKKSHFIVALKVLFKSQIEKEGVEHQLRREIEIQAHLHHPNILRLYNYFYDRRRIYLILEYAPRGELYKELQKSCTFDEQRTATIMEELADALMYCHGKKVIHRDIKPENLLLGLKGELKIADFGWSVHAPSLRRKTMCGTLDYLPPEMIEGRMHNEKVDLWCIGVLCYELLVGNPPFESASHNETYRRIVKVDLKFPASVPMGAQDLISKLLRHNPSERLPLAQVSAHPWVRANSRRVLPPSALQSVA
Sequence of LTK (P29376 17-864): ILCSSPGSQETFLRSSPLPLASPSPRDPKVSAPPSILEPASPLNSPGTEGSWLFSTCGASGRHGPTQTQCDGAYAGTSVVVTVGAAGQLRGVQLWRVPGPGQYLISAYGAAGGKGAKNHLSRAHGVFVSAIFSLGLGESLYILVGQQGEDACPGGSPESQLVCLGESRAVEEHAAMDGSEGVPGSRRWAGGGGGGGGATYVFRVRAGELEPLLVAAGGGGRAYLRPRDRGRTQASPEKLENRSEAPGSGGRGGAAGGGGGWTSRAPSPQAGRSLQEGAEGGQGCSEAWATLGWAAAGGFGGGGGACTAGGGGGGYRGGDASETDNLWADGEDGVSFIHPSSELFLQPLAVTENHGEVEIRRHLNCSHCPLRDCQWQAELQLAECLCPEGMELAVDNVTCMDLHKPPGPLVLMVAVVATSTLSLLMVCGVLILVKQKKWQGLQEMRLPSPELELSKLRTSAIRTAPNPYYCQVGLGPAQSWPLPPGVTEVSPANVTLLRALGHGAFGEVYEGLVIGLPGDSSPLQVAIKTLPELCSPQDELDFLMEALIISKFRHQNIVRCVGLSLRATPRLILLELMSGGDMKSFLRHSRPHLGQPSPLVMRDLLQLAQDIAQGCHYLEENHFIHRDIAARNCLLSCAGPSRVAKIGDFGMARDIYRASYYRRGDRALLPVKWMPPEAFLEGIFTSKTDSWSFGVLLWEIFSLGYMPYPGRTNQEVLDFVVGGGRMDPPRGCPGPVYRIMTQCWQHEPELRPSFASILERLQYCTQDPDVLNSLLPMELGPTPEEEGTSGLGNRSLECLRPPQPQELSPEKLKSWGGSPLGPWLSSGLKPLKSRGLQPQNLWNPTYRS

inhibition at 0.01 µM [1]: < 39%
inhibition at 0.1 µM [1, 19]: > 60%
inhibition at 1 µM [1, 20]: > 60%
inhibition at 0.01 µM [2]: < 39%
inhibition at 0.1 µM ([2]; PYK2, 100 nM, read-out: Average % Inh @ 100 nM): > 60%
inhibition at 1 µM ([2]; PYK2, 1 μM, read-out: Average % Inh @ 1 μM): > 60%
Average % Inh @ 10 nM ([3]; 10 nM): + (+=Low)
Average % Inh @ 100 nM ([3]; 100 nM): ++ (++=Med)
Average % Inh @ 1 μM ([3]; 1 μM): +++ (+++=High)
inhibition at 0.01 µM [4, 21]: < 39%
inhibition at 0.1 µM [4, 19]: < 39%
inhibition at 1 µM [4, 20]: > 60%
inhibition at 1 µM [5]: > 60%
inhibition at 1 µM [6]: > 60%
inhibition at 1 µM [7]: 40 to 59%
inhibition at 1 µM [8]: 40 to 59%
inhibition at 0.01 µM [9, 21]: < 39%
inhibition at 0.1 µM [9, 19]: < 39%
inhibition at 1 µM [9, 20]: > 60%
inhibition at 1 µM [10]: > 60%
inhibition at 0.01 µM ([11]; MST1, 10 nM, read-out: Average % Inh @ 10 nM): < 39%
inhibition at 0.1 µM ([11]; MST1, 100 nM, read-out: Average % Inh @ 100 nM): 40 to 59%
inhibition at 1 µM ([11]; MST1, 1 μM, read-out: Average % Inh @ 1 μM): > 60%
inhibition at 0.01 µM [12, 21]: < 39%
inhibition at 0.1 µM [12, 19]: > 60%
inhibition at 1 µM [12, 20]: > 60%
inhibition at 0.01 µM [13, 21]: < 39%
inhibition at 0.1 µM [13, 19]: 40 to 59%
inhibition at 1 µM [13, 20]: > 60%
inhibition at 0.01 µM [14, 22]: < 39%
inhibition at 0.1 µM [14, 23]: > 60%
inhibition at 1 µM ([14]; read-out: Average % Inh @ 1 μM): > 60%
inhibition at 0.01 µM [15, 22]: 40 to 59%
inhibition at 0.1 µM [15, 23]: > 60%
inhibition at 1 µM ([15]; read-out: Average % Inh @ 1 μM): > 60%
inhibition at 0.01 µM [16, 22]: > 60%
inhibition at 0.1 µM [16, 23]: > 60%
inhibition at 1 µM ([16]; read-out: Average % Inh @ 1 μM): > 60%
SMILES: O=C(Nc1ccc(F)nc1)C1CCCN1c1nc2c(c(Nc3cc(C4CC4)[nH]n3)n1)CCC2 (single isomer, unassigned) [Compound 2b, 1-(4-(5-cyclopropyl-1H-pyrazol-3-ylamino)-6,7-dihydro-5H-cyclopenta[d]pyrimidin-2-yl)-N-(6-fluoropyridin-3-yl)pyrrolidine-2-carboxamide]

inhibition at 0.001 µM ([1]; 1 nM, read-out: Average % Inh @ 1 nM): 40 to 59%
inhibition at 0.01 µM [1]: > 60%
inhibition at 0.001 µM ([2]; PYK2, 1 nM, read-out: Average % Inh @ 1 nM): < 39%
inhibition at 0.01 µM [2]: 40 to 59%
inhibition at 1 µM [17]: < 10%
inhibition at 1 µM [18]: < 30%
IC50 [14]: 132 nM
IC50 [15]: 74.7 nM
IC50 [16]: 41.4 nM
SMILES: CC(C)c1cc(Nc2nc(N3CCCC3C(=O)Nc3ccc(F)nc3)nc3c2CCC3)n[nH]1 (single isomer, unassigned) [Compound 8b]
